Assay results: publication PMC10108266, “Pharmacokinetic characteristics of golidocitinib, a highly selective JAK1 inhibitor, in healthy adult participants” (Frontiers in Immunology, 2023)
Read-outs that look alike come from different tables or passages of the source.

Tests used:
[1] = JACKPOT3 single-ascending-dose plasma PK, healthy Chinese participants; assay type: in vivo, human; details: for AUC(0-inf) / Cmax / Vd/F / half-life / Tmax: human, plasma; for AUC(0-inf) / Cmax: geometric mean (CV%)
Description: This was a SAD study in healthy adult Asian participants, with a study design similar to the SAD cohorts of JACKPOT2 study. […] A total of 32 healthy participants were randomized to receive a single dose of golidocitinib or matched placebo (6:2).
After single oral administration, serial blood samples were obtained on Day 1 at pre-dose, and at 0.5, 1, 1.5, 2, 3, 4, 6, 8, 12, 24 (Day 2), 48 (Day 3), 72 (Day 4), 120 (Day 6), 168 (Day 8) and 216 (Day 10) hours post-dose for plasma PK analysis. Urine samples were collected during the collection intervals of 0-4, 4-10, 10-24, 24-48, 48-72, 72-96, 96-120, 120-144, and 144-168 hours following a single oral dose of 100 mg for urine PK analysis. Validated LC/MS methods were used for the determination of golidocitinib in human plasma and urine by Frontage Laboratories Inc. (Shanghai). This method was cross validated by Frontage Laboratories Inc. (New Jersey, USA) and met the acceptance criteria.

Safety (TEAEs), JACKPOT3 = assay type: in vivo, human; details: n = 6
Description: The safety monitoring for both JACKPOT2 and JACKPOT3 was similar, included monitoring of adverse events/serious adverse events, clinical safety laboratory tests (clinical chemistry, hematology, coagulation, and urinalysis tests), 12-lead ECG, vital signs (blood pressure, pulse rate, and respiratory rate), and pulmonary function.

COc1nn(C)cc1Nc1nccc(-c2c[nH]c3c(NC(=O)[C@@H](C)N4CCN(C)CC4)cccc23)n1 [golidocitinib, (2R)-N-[3-[2-[(3-Methoxy-1-methyl-pyrazol-4-yl)amino]pyrimidin-4-yl]-1H-indol-7-yl]-2-(4-methylpiperazin-1-yl)propenamide]
AUC(0-inf) ([1]; oral, single dose 25 mg): 1230 ng·h/mL | Cmax ([1]; oral, single dose 25 mg): 40.8 ng/mL | Vd/F ([1]; oral, single dose 25 mg, mean (SD), read-out: Vz/F): 1040 L | half-life ([1]; oral, single dose 25 mg, median (min, max), read-out: t1/2 (converted)): 2280 min | Tmax ([1]; oral, single dose 25 mg, median (min, max), read-out: tmax): 3 h | AUC(0-inf) ([1]; oral, single dose 50 mg): 2370 ng·h/mL | Cmax ([1]; oral, single dose 50 mg): 75 ng/mL | Vd/F ([1]; oral, single dose 50 mg, mean (SD), read-out: Vz/F): 1160 L | half-life ([1]; oral, single dose 50 mg, median (min, max), read-out: t1/2 (converted)): 2350 min | Tmax ([1]; oral, single dose 50 mg, median (min, max), read-out: tmax): 2 h | AUC(0-inf) ([1]; oral, single dose 100 mg): 4740 ng·h/mL | Cmax ([1]; oral, single dose 100 mg): 184 ng/mL | Vd/F ([1]; oral, single dose 100 mg, mean (SD), read-out: Vz/F): 826 L | half-life ([1]; oral, single dose 100 mg, median (min, max), read-out: t1/2 (converted)): 1700 min | Tmax ([1]; oral, single dose 100 mg, median (min, max), read-out: tmax): 2 h | AUC(0-inf) ([1]; oral, single dose 150 mg): 8340 ng·h/mL | Cmax ([1]; oral, single dose 150 mg): 280 ng/mL | Vd/F ([1]; oral, single dose 150 mg, mean (SD), read-out: Vz/F): 1210 L | half-life ([1]; oral, single dose 150 mg, median (min, max), read-out: t1/2 (converted)): 2800 min | Tmax ([1]; oral, single dose 150 mg, median (min, max), read-out: tmax): 1.75 h | Vd/F ([1]; single oral administration, Chinese participants, read-out: mean Vz/F): 826 to 1210 L | half-life ([1]; single oral administration, across the dose range, Chinese participants, read-out: median terminal half-life (t1/2)): 1700 to 2800 min | Tmax ([1]; single oral administration, across the dose range, Chinese participants, read-out: median tmax): 1.75 to 3 h | CL/F ([1]; single dose 50 mg, mean (SD)): 21.2 (13.1) L/hr | CL/F ([1]; single dose 100 mg, mean (SD)): 21.4 (16.5) L/hr | CL/F ([1]; single dose 150 mg, mean (SD)): 18.1 (14.2) L/hr | ALT Increased (Safety (TEAEs), JACKPOT3; 25 mg): 0 n (%) | AST Increased (Safety (TEAEs), JACKPOT3; 25 mg): 0 n (%) | Abdominal discomfort (Safety (TEAEs), JACKPOT3; 25 mg): 1 (16.7%) n (%) | Blood and Lymphatic System Disorders (Safety (TEAEs), JACKPOT3; 25 mg): 1 (16.7%) n (%) | Blood bilirubin increased (Safety (TEAEs), JACKPOT3; 25 mg): 0 n (%) | Blood cholesterol increased (Safety (TEAEs), JACKPOT3; 25 mg): 0 n (%) | C-reactive protein increased (Safety (TEAEs), JACKPOT3; 25 mg): 1 (16.7%) n (%) | Diarrhea (Safety (TEAEs), JACKPOT3; 25 mg): 1 (16.7%) n (%) | ECG QT prolonged (Safety (TEAEs), JACKPOT3; 25 mg): 0 n (%) | Epistaxis (Safety (TEAEs), JACKPOT3; 25 mg): 0 n (%) | Gastrointestinal disorders (Safety (TEAEs), JACKPOT3; 25 mg): 2 (33.3%) n (%) | Glucose urine present (Safety (TEAEs), JACKPOT3; 25 mg): 0 n (%) | Hemoglobin decreased (Safety (TEAEs), JACKPOT3; 25 mg): 0 n (%) | Hypertriglyceridemia (Safety (TEAEs), JACKPOT3; 25 mg): 0 n (%) | Injury, poisoning and procedural complications (Safety (TEAEs), JACKPOT3; 25 mg): 1 (16.7%) n (%) | Investigations (Safety (TEAEs), JACKPOT3; 25 mg): 2 (33.3%) n (%) | LDH increased (Safety (TEAEs), JACKPOT3; 25 mg): 0 n (%) | LDL increased (Safety (TEAEs), JACKPOT3; 25 mg): 0 n (%) | Leukocytosis (Safety (TEAEs), JACKPOT3; 25 mg): 1 (16.7%) n (%) | Limb injury (Safety (TEAEs), JACKPOT3; 25 mg): 1 (16.7%) n (%) | Metabolism and nutrition disorders (Safety (TEAEs), JACKPOT3; 25 mg): 0 n (%) | Musculoskeletal and connective tissue disorders (Safety (TEAEs), JACKPOT3; 25 mg): 0 n (%) | Musculoskeletal pain (Safety (TEAEs), JACKPOT3; 25 mg): 0 n (%) | Musculoskeletal stiffness (Safety (TEAEs), JACKPOT3; 25 mg): 0 n (%) | Neutrophil count decreased (Safety (TEAEs), JACKPOT3; 25 mg): 1 (16.7%) n (%) | Productive cough (Safety (TEAEs), JACKPOT3; 25 mg): 1 (16.7%) n (%) | Respiratory, Thoracic and Mediastinal Disorders (Safety (TEAEs), JACKPOT3; 25 mg): 1 (16.7%) n (%) | Rhinorrhea (Safety (TEAEs), JACKPOT3; 25 mg): 0 n (%) | Subjects with at least one TEAE (Safety (TEAEs), JACKPOT3; 25 mg): 4 (66.7%) n (%) | Wound (Safety (TEAEs), JACKPOT3; 25 mg): 0 n (%) | ALT Increased (Safety (TEAEs), JACKPOT3; 50 mg): 1 (16.7%) n (%) | AST Increased (Safety (TEAEs), JACKPOT3; 50 mg): 2 (33.3%) n (%) | Abdominal discomfort (Safety (TEAEs), JACKPOT3; 50 mg): 0 n (%) | Blood and Lymphatic System Disorders (Safety (TEAEs), JACKPOT3; 50 mg): 0 n (%) | Blood bilirubin increased (Safety (TEAEs), JACKPOT3; 50 mg): 1 (16.7%) n (%) | Blood cholesterol increased (Safety (TEAEs), JACKPOT3; 50 mg): 0 n (%) | C-reactive protein increased (Safety (TEAEs), JACKPOT3; 50 mg): 0 n (%) | Diarrhea (Safety (TEAEs), JACKPOT3; 50 mg): 0 n (%) | ECG QT prolonged (Safety (TEAEs), JACKPOT3; 50 mg): 0 n (%) | Epistaxis (Safety (TEAEs), JACKPOT3; 50 mg): 0 n (%) | Gastrointestinal disorders (Safety (TEAEs), JACKPOT3; 50 mg): 0 n (%) | Glucose urine present (Safety (TEAEs), JACKPOT3; 50 mg): 0 n (%) | Hemoglobin decreased (Safety (TEAEs), JACKPOT3; 50 mg): 0 n (%) | Hypertriglyceridemia (Safety (TEAEs), JACKPOT3; 50 mg): 1 (16.7%) n (%) | Injury, poisoning and procedural complications (Safety (TEAEs), JACKPOT3; 50 mg): 0 n (%) | Investigations (Safety (TEAEs), JACKPOT3; 50 mg): 3 (50.0%) n (%) | LDH increased (Safety (TEAEs), JACKPOT3; 50 mg): 1 (16.7%) n (%)
